# Data published in publication PMC5474940 (Biochemistry, 2017).
# Test system: AcOSα-PaFSα
# Assay type: biochemical, Aspergillus clavatus
# Conditions: read-out: AcOSα-PaFSα; labelled compound; 25 mM HEPES pH 8.0, 200 mM NaCl, 5 mM MgCl2, 30 °C; cyclase domain
structure (smiles),measurement,value
CC(C)=CCC/C(C)=C/CC/C(C)=C/CC/C(C)=C/COP(=O)(O)OP(=O)(O)O [GGPP],Km,0.038 ± 0.01 µM
